Tests used:
Assay in all cases: relative viability (nuclei count vs DMSO), 5 days (fraction); higher = more cells survive
Dabrafenib + Palbociclib = compound: CC(C)(C)c1nc(-c2cccc(NS(=O)(=O)c3c(F)cccc3F)c2F)c(-c2ccnc(N)n2)s1 [Dabrafenib] + CC(=O)c1c(C)c2cnc(Nc3ccc(N4CCNCC4)cn3)nc2n(C2CCCC2)c1=O [Palbociclib] (partner 0.5 µM)
Method in brief: (§1)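 Relative viability divides the nuclei count in treated wells by that in vehicle wells. Lung cancer cell lines were seeded in 1536-well plates, dosed by pin tool the next day, and fixed and stained after 5 days in one step with final 0.05% Triton X-100, 1% formaldehyde and 1 ug/ml Hoechst. Dosing was a single drug or a fixed anchor-drug dose plus five library-drug doses (not always all listed) in √10 steps, and values are medians of duplicate plates imaged at 4×.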

Dabrafenib + Navitoclax = compound: CC(C)(C)c1nc(-c2cccc(NS(=O)(=O)c3c(F)cccc3F)c2F)c(-c2ccnc(N)n2)s1 [Dabrafenib] + CC1(C)CCC(c2ccc(Cl)cc2)=C(CN2CCN(c3ccc(C(=O)NS(=O)(=O)c4ccc(N[C@H](CCN5CCOCC5)CSc5ccccc5)c(S(=O)(=O)C(F)(F)F)c4)cc3)CC2)C1 [Navitoclax] (partner 0.5 µM)
Method in brief: as §1

Dabrafenib + Linsitinib = compound: CC(C)(C)c1nc(-c2cccc(NS(=O)(=O)c3c(F)cccc3F)c2F)c(-c2ccnc(N)n2)s1 [Dabrafenib] + C[C@]1(O)C[C@@H](c2nc(-c3ccc4ccc(-c5ccccc5)nc4c3)c3c(N)nccn32)C1 [Linsitinib] (partner 1 µM)
Method in brief: as §1

Dabrafenib + Trametinib = compound: CC(C)(C)c1nc(-c2cccc(NS(=O)(=O)c3c(F)cccc3F)c2F)c(-c2ccnc(N)n2)s1 [Dabrafenib] + CC(=O)Nc1cccc(-n2c(=O)n(C3CC3)c(=O)c3c(Nc4ccc(I)cc4F)n(C)c(=O)c(C)c32)c1 [Trametinib] (partner 0.02 µM)
Method in brief: as §1

Row | Cell Line | relative viability (Dabrafenib + Palbociclib; first compound 0.003 µM) | relative viability (Dabrafenib + Palbociclib; first compound 0.009487 µM) | relative viability (Dabrafenib + Palbociclib; first compound 0.03 µM) | relative viability (Dabrafenib + Palbociclib; first compound 0.09487 µM) | relative viability (Dabrafenib + Palbociclib; first compound 0.3 µM) | relative viability (Dabrafenib + Navitoclax; first compound 0.003 µM) | relative viability (Dabrafenib + Navitoclax; first compound 0.009487 µM) | relative viability (Dabrafenib + Navitoclax; first compound 0.03 µM) | relative viability (Dabrafenib + Navitoclax; first compound 0.09487 µM) | relative viability (Dabrafenib + Navitoclax; first compound 0.3 µM) | relative viability (Dabrafenib + Linsitinib; first compound 0.003 µM) | relative viability (Dabrafenib + Linsitinib; first compound 0.009487 µM) | relative viability (Dabrafenib + Linsitinib; first compound 0.03 µM) | relative viability (Dabrafenib + Linsitinib; first compound 0.09487 µM) | relative viability (Dabrafenib + Linsitinib; first compound 0.3 µM) | relative viability (Dabrafenib + Trametinib; first compound 0.003 µM) | relative viability (Dabrafenib + Trametinib; first compound 0.009487 µM) | relative viability (Dabrafenib + Trametinib; first compound 0.03 µM) | relative viability (Dabrafenib + Trametinib; first compound 0.09487 µM) | relative viability (Dabrafenib + Trametinib; first compound 0.3 µM)
1 | 201T | 0.368 | 0.366 | 0.368 | 0.318 | 0.376 | 1.19 | 1.18 | 1.15 | 1.15 | 1.26 | 0.918 | 1.07 | 0.941 | 1.03 | 1.05 | 0.723 | 0.744 | 0.654 | 0.685 | 0.751
2 | A549 |  |  |  |  |  | 1.09 | 1.26 | 1.28 | 1.18 | 1.2 |  | 0.549 | 0.374 | 0.697 | 0.568 |  |  |  |  | 
3 | A-427 | 0.485 | 0.537 | 0.509 | 0.459 | 0.533 |  | 0.954 | 0.91 | 0.803 | 0.888 |  | 1.13 | 1 | 0.949 | 1.1 | 0.759 | 0.737 | 0.745 | 0.65 | 0.785
4 | ABC-1 |  | 1.01 | 0.704 | 0.607 | 1.03 |  |  |  |  |  |  | 0.81 | 0.841 | 0.892 | 0.861 |  |  |  |  | 
5 | BEN |  | 0.477 |  | 0.426 | 0.448 |  | 0.0803 |  | 0.0599 | 0.0801 |  | 0.986 |  | 0.883 | 0.938 |  | 1.07 |  | 0.842 | 1.11
6 | CAL-12T | 0.461 | 0.486 | 0.599 | 0.388 | 0.722 | 1.28 | 1.32 | 1.4 | 1.3 | 1.27 | 0.744 | 0.901 | 0.786 | 0.777 | 0.963 | 0.327 | 0.319 | 0.382 | 0.334 | 0.445
7 | COR-L23 | 0.25 | 0.328 | 0.245 | 0.275 | 0.207 | 0.948 | 0.997 | 0.908 | 0.927 | 0.894 | 0.997 | 0.974 | 0.843 | 0.886 | 0.883 | 0.528 | 0.432 | 0.626 | 0.512 | 0.656
8 | COR-L 105 | 0.414 | 0.396 | 0.398 | 0.417 | 0.367 | 0.73 | 0.856 | 0.649 | 0.875 | 0.744 | 0.959 | 0.943 | 0.908 | 0.88 | 1.07 | 0.418 | 0.478 | 0.46 | 0.479 | 0.521
9 | Calu-6 |  |  |  |  |  | 0.83 | 0.799 | 0.77 | 0.604 | 0.587 | 0.939 | 0.951 | 0.72 | 0.737 | 0.675 |  |  |  |  | 
10 | ChaGo-K-1 | 0.874 | 0.925 | 0.838 | 0.89 | 0.996 |  | 0.891 | 0.966 | 0.986 | 1.06 |  |  |  |  |  | 0.884 | 0.929 | 0.933 | 0.875 | 0.905
11 | EBC-1 |  |  |  |  |  | 0.369 | 0.373 | 0.32 | 0.145 | 0.221 | 0.854 | 0.867 | 0.679 | 0.378 | 0.309 |  |  |  |  | 
12 | EKVX |  | 0.41 | 0.387 | 0.383 | 0.445 | 0.778 | 1.01 | 0.961 | 0.894 | 1.11 | 0.997 | 1.17 | 0.933 | 0.866 | 1.13 |  | 0.367 | 0.304 | 0.434 | 0.462
13 | EMC-BAC-2 |  | 0.497 | 0.448 | 0.427 | 0.418 | 1.27 | 1.19 | 0.998 | 1.1 | 1.19 | 0.773 | 0.825 | 0.616 | 0.838 | 0.851 |  | 0.827 | 1 | 1.03 | 1.2
14 | EPLC-272H |  | 0.318 | 0.286 | 0.366 | 0.354 |  | 1.39 | 0.997 | 0.875 | 0.824 |  | 1.36 | 1.02 | 0.939 | 0.918 |  | 0.262 | 0.312 | 0.349 | 0.329
15 | H3255 | 0.288 | 0.313 | 0.343 | 0.313 | 0.333 | 0.375 | 0.669 | 0.548 | 0.441 | 0.566 | 0.944 | 1.06 | 1.01 | 0.832 | 1.03 | 0.641 | 0.584 | 0.668 | 0.639 | 0.789
16 | HARA |  | 0.325 |  | 0.304 | 0.338 | 1.14 | 1.15 | 1.07 | 1.07 | 1.12 | 0.973 | 0.869 | 0.841 | 0.905 | 1.3 |  | 0.805 | 0.832 | 0.721 | 1
17 | HCC-15 | 0.714 | 0.779 | 0.769 | 0.729 | 0.78 | 0.728 | 0.787 | 0.734 | 0.694 | 0.833 | 0.851 | 0.996 | 0.917 | 0.821 | 0.951 | 0.354 | 0.437 | 0.378 | 0.374 | 0.506
18 | HCC-44 | 1.01 | 0.956 | 0.943 | 0.842 | 0.983 | 0.939 | 1.04 | 0.939 | 0.843 | 1.04 | 0.624 | 0.706 | 0.822 | 0.605 | 0.701 | 0.926 | 0.993 | 1.18 | 0.876 | 1.11
19 | HCC-78 | 0.366 | 0.481 | 0.414 | 0.426 | 0.498 |  | 0.908 | 0.702 | 0.795 | 0.869 |  | 0.694 | 0.442 | 0.45 | 0.628 |  | 0.688 | 0.668 | 0.761 | 0.89

Source: the supplement of paper PMC10307832
